According to article PMC7899551, “Phase 1 study of Z-endoxifen in patients with advanced gynecologic, desmoid, and hormone receptor-positive solid tumors” (Oncotarget, 2021):
Read-outs that look alike come from different tables or passages of the source.

Assay: Plasma pharmacokinetics of Z-endoxifen (HPLC assay, non-compartmental analysis)
Type: in vivo, human
Details: human, plasma, po
Procedure: This was an open-label trial of Z-endoxifen in patients with advanced solid tumors (https://clinicaltrials.gov/ identifier: NCT01273168). Z-endoxifen-HCl was supplied by the Pharmaceutical Management Branch, National Cancer Institute, as 20 and 40 mg capsules; agent was administered orally once daily on a continuous schedule in 28-day cycles with a starting dose of 20 mg/day taken either 1 hour before or 2 hours after meals. Dose escalation followed a traditional 3+3 design in which patients were dose-escalated to the next dose level (DL) in cohorts of 3 patients until dose-limiting toxicity (DLT) was observed. DLT was defined as an adverse event that occurred during cycle 1, was thought to be related to study drug administration, and met one of the following criteria: grade ≥ 3 non-hematologic toxicities (except diarrhea, nausea and vomiting, alopecia, rising creatinine or electrolyte toxicities that resolved within 24 hours, or intolerable estrogen withdrawal symptoms) or grade ≥ 3 hematologic toxicities (except neutropenia lasting less than 5 days, lymphopenia, or anemia). Eight dose levels (DL1-8) were examined: 20, 40, 60, 100, 140, 200, 280, and 360 mg, respectively. Two patients at DL8 received the free base form of Z-endoxifen on day 1 rather than the hydrochloride salt to assess the pharmacokinetics of that formulation.
A 3-mL blood sample was collected in a K2 EDTA tube on day 1 of cycle 1 before drug administration and at the following times post-first dose: 0.5, 1, 2, 3, 4, 6, 8, and 24 hours. Samples were collected at the same time points on day 28 of cycle 1 for DL1-6 until a protocol amendment eliminated the requirement for these samples at the higher dose levels. Samples were wrapped in aluminum foil after collection to protect from light exposure. A 10-mL aliquot of urine was collected before agent administration on cycle 1 day 1, for 24 hours after dosing on day 1, and before drug administration on cycle 2 day 1; samples were refrigerated prior to analysis.
Plasma and urine concentrations of Z- and E-endoxifen were measured using a validated, post-column fluorescence derivatization HPLC assay. Non-compartmental pharmacokinetic parameters were calculated using WinNonlin version 7.0 (Pharsight Corp., Mountainview, CA, USA). A 2 μM Cmax target was established for day 28 plasma concentration. The amount of Z-endoxifen excreted in urine was measured over a 24-hour collection period.

## CC/C(=C(\c1ccc(O)cc1)c1ccc(OCCNC)cc1)c1ccccc1 [Z-endoxifen]
20 mg/day, DL1 20 mg/day oral, day 28, mean, read-out: Cmax, Mean
  Cmax: 286 ng/mL
20 mg/day, DL1 20 mg/day oral, day 28, mean, read-out: Tmax, Mean
  Tmax: 0.7 h
40 mg, DL2 40 mg oral, day 1, individual patients, read-out: AUC(0-24h)
  AUC(0-t): 1290 ng·h/mL
40 mg, DL2 40 mg oral, day 1, individual patients, read-out: Cmax
  Cmax: 83.6 ng/mL
40 mg, DL2 40 mg oral, day 1, mean, read-out: AUC(0-24h), Mean
  AUC(0-t): 1650 ng·h/mL
40 mg, DL2 40 mg oral, day 1, mean, read-out: C24h, Mean
  concentration at 24 h: 52.5 ng/mL
40 mg, DL2 40 mg oral, day 1, mean, read-out: Cmax, Mean
  Cmax: 112 ng/mL
40 mg/day, DL2 40 mg/day oral, day 28, individual patients, read-out: AUC(0-24h)
  AUC(0-t): 5570 ng·h/mL
40 mg/day, DL2 40 mg/day oral, day 28, individual patients, read-out: Adjusted Half-Life (converted)
  half-life: 39.3 h
40 mg/day, DL2 40 mg/day oral, day 28, individual patients, read-out: C24h
  concentration at 24 h: 136 ng/mL
40 mg/day, DL2 40 mg/day oral, day 28, individual patients, read-out: Cmax
  Cmax: 321 ng/mL
40 mg/day, DL2 40 mg/day oral, day 28, mean, read-out: AUC(0-24h), Mean
  AUC(0-t): 4760 ng·h/mL
40 mg/day, DL2 40 mg/day oral, day 28, mean, read-out: C24h, Mean
  concentration at 24 h: 147 ng/mL
40 mg/day, DL2 40 mg/day oral, day 28, mean, read-out: Cmax, Mean
  Cmax: 258 ng/mL
40 mg/day, DL2 40 mg/day oral, day 28, mean, read-out: Tmax, Mean
  Tmax: 3.3 h
60 mg, DL3 60 mg oral, day 1, individual patients, read-out: AUC(0-24h)
  AUC(0-t): 1620 ng·h/mL
60 mg, DL3 60 mg oral, day 1, individual patients, read-out: C24h
  concentration at 24 h: 89.7 ng/mL
60 mg, DL3 60 mg oral, day 1, individual patients, read-out: Cmax
  Cmax: 89.7 ng/mL
60 mg, DL3 60 mg oral, day 1, mean, read-out: AUC(0-24h), Mean
  AUC(0-t): 2140 ng·h/mL
60 mg, DL3 60 mg oral, day 1, mean, read-out: C24h, Mean
  concentration at 24 h: 82.7 ng/mL
60 mg, DL3 60 mg oral, day 1, mean, read-out: Cmax, Mean
  Cmax: 122 ng/mL
60 mg, DL3 60 mg oral, day 1, mean, read-out: Tmax, Mean
  Tmax: 12 h
60 mg/day, DL3 60 mg/day oral, day 28, mean, read-out: AUC(0-24h), Mean
  AUC(0-t): 8080 ng·h/mL
60 mg/day, DL3 60 mg/day oral, day 28, mean, read-out: C24h, Mean
  concentration at 24 h: 345 ng/mL
60 mg/day, DL3 60 mg/day oral, day 28, mean, read-out: Cmax, Mean
  Cmax: 417 ng/mL
60 mg/day, DL3 60 mg/day oral, day 28, mean, read-out: Tmax, Mean
  Tmax: 10.8 h
100 mg, DL4 100 mg oral, day 1, individual patients, read-out: AUC(0-24h)
  AUC(0-t): 4640 ng·h/mL
100 mg, DL4 100 mg oral, day 1, individual patients, read-out: C24h
  concentration at 24 h: 133 ng/mL
100 mg, DL4 100 mg oral, day 1, individual patients, read-out: Cmax
  Cmax: 264 ng/mL
100 mg, DL4 100 mg oral, day 1, individual patients, read-out: Tmax
  Tmax: 1 h
100 mg, DL4 100 mg oral, day 1, mean, read-out: AUC(0-24h), Mean
  AUC(0-t): 5000 ng·h/mL
100 mg, DL4 100 mg oral, day 1, mean, read-out: C24h, Mean
  concentration at 24 h: 155 ng/mL
100 mg, DL4 100 mg oral, day 1, mean, read-out: Cmax, Mean
  Cmax: 296 ng/mL
100 mg, DL4 100 mg oral, day 1, mean, read-out: Tmax, Mean
  Tmax: 4.3 h
100 mg/day, DL4 100 mg/day oral, day 28, individual patients, read-out: AUC(0-24h)
  AUC(0-t): 13300 ng·h/mL
100 mg/day, DL4 100 mg/day oral, day 28, individual patients, read-out: Adjusted Half-Life (converted)
  half-life: 36.8 h
100 mg/day, DL4 100 mg/day oral, day 28, individual patients, read-out: C24h
  concentration at 24 h: 428 ng/mL
100 mg/day, DL4 100 mg/day oral, day 28, individual patients, read-out: Cmax
  Cmax: 1300 ng/mL
100 mg/day, DL4 100 mg/day oral, day 28, individual patients, read-out: Tmax
  Tmax: 2 h
100 mg/day, DL4 100 mg/day oral, day 28, mean (one patient), read-out: AUC(0-24h), Mean
  AUC(0-t): 13300 ng·h/mL
100 mg/day, DL4 100 mg/day oral, day 28, mean (one patient), read-out: Adjusted Half-Life, Mean (converted)
  half-life: 36.8 h
100 mg/day, DL4 100 mg/day oral, day 28, mean (one patient), read-out: C24h, Mean
  concentration at 24 h: 428 ng/mL
100 mg/day, DL4 100 mg/day oral, day 28, mean, read-out: Cmax, Mean
  Cmax: 1010 ng/mL
140 mg, DL5 140 mg oral, day 1, individual patients, read-out: Tmax
  Tmax: 3 h
140 mg, DL5 140 mg oral, day 1, mean, read-out: AUC(0-24h), Mean
  AUC(0-t): 9760 ng·h/mL
140 mg, DL5 140 mg oral, day 1, mean, read-out: C24h, Mean
  concentration at 24 h: 311 ng/mL
140 mg, DL5 140 mg oral, day 1, mean, read-out: Cmax, Mean
  Cmax: 610 ng/mL
140 mg, DL5 140 mg oral, day 1, mean, read-out: Tmax, Mean
  Tmax: 4.3 h
140 mg/day, DL5 140 mg/day oral, day 28, individual patients, read-out: AUC(0-24h)
  AUC(0-t): 18200 ng·h/mL
140 mg/day, DL5 140 mg/day oral, day 28, individual patients, read-out: Adjusted Half-Life (converted)
  half-life: 33.1 h
140 mg/day, DL5 140 mg/day oral, day 28, individual patients, read-out: C24h
  concentration at 24 h: 598 ng/mL
140 mg/day, DL5 140 mg/day oral, day 28, individual patients, read-out: Cmax
  Cmax: 973 ng/mL
140 mg/day, DL5 140 mg/day oral, day 28, individual patients, read-out: Tmax
  Tmax: 1 h
140 mg/day, DL5 140 mg/day oral, day 28, mean, read-out: AUC(0-24h), Mean
  AUC(0-t): 17400 ng·h/mL
140 mg/day, DL5 140 mg/day oral, day 28, mean, read-out: Adjusted Half-Life, Mean (converted)
  half-life: 30.6 h
140 mg/day, DL5 140 mg/day oral, day 28, mean, read-out: C24h, Mean
  concentration at 24 h: 563 ng/mL
140 mg/day, DL5 140 mg/day oral, day 28, mean, read-out: Cmax, Mean
  Cmax: 1110 ng/mL
200 mg, DL6 200 mg oral, day 1, individual patients, read-out: AUC(0-24h)
  AUC(0-t): 6340 ng·h/mL
200 mg, DL6 200 mg oral, day 1, individual patients, read-out: C24h
  concentration at 24 h: 279 ng/mL
200 mg, DL6 200 mg oral, day 1, individual patients, read-out: Tmax
  Tmax: 2 h
200 mg, DL6 200 mg oral, day 1, mean, read-out: AUC(0-24h), Mean
  AUC(0-t): 9220 ng·h/mL
200 mg, DL6 200 mg oral, day 1, mean, read-out: C24h, Mean
  concentration at 24 h: 336 ng/mL
200 mg, DL6 200 mg oral, day 1, mean, read-out: Cmax, Mean
  Cmax: 517 ng/mL
200 mg/day, DL6 200 mg/day oral, day 28, individual patients, read-out: Adjusted Half-Life (converted)
  half-life: 34.8 h
200 mg/day, DL6 200 mg/day oral, day 28, mean, read-out: AUC(0-24h), Mean
  AUC(0-t): 30800 ng·h/mL
200 mg/day, DL6 200 mg/day oral, day 28, mean, read-out: C24h, Mean
  concentration at 24 h: 1070 ng/mL
200 mg/day, DL6 200 mg/day oral, day 28, mean, read-out: Cmax, Mean
  Cmax: 1640 ng/mL
280 mg, DL7 280 mg oral, day 1, individual patients, read-out: Cmax
  Cmax: 888 ng/mL
280 mg, DL7 280 mg oral, day 1, individual patients, read-out: Tmax
  Tmax: 3 h
280 mg, DL7 280 mg oral, day 1, mean, read-out: AUC(0-24h), Mean
  AUC(0-t): 15000 ng·h/mL
280 mg, DL7 280 mg oral, day 1, mean, read-out: C24h, Mean
  concentration at 24 h: 468 ng/mL
280 mg, DL7 280 mg oral, day 1, mean, read-out: Cmax, Mean
  Cmax: 930 ng/mL
360 mg, DL8 360 mg oral, day 1, individual patients, read-out: Tmax
  Tmax: 2 h
360 mg, DL8 360 mg oral, day 1, mean (excluding patients 35 and 36), read-out: AUC(0-24h), Mean
  AUC(0-t): 20500 ng·h/mL
360 mg, DL8 360 mg oral, day 1, mean (excluding patients 35 and 36), read-out: C24h, Mean
  concentration at 24 h: 676 ng/mL
360 mg, DL8 360 mg oral, day 1, mean (excluding patients 35 and 36), read-out: Cmax, Mean
  Cmax: 1310 ng/mL
360 mg, DL8 360 mg oral, day 1, mean (excluding patients 35 and 36), read-out: Tmax, Mean
  Tmax: 3.9 h
360 mg, HCl salt, 360 mg oral, day 2 (after free base on day 1), mean of patients 35 and 36, read-out: AUC(0–24 h), Mean
  AUC(0-t): 41600 ng·h/mL
360 mg, HCl salt, 360 mg oral, day 2 (after free base on day 1), mean of patients 35 and 36, read-out: C24 h, Mean
  concentration at 24 h: 1470 ng/mL
360 mg, HCl salt, 360 mg oral, day 2 (after free base on day 1), patients 35 and 36 individually, read-out: C24 h
  concentration at 24 h: 827 ng/mL
